What was measured:
human NKT cell lines = test: Human NKT cell lines, IFN-γ and IL-4 production; assay type: cell-based; conditions: PI57 10 μg/ml, 48 hours in vitro
Method: (§1) In FIG. 7A, NKT cell lines were cocultured with BM-derived DCs (BMDCs) and α-GalCer (100 ng/ml), PI57 (10 μg/ml), or vehicle for 48 hours, with or without pre-incubation with anti-CD1d (10 μg/ml). IFN-γ was measured by ELISA. In FIG. 7B, murine NKT cell lines were cocultured as in 7A with BMDCs from WT, Cd1d^−/−, Myd88^−/−, or Trif^−/− mice. Cells were treated with α-GalCer (100 ng/ml), PI57 (2.5, 5, or 10 μg/ml), PBS30 (1, 2.5, or 5 μg/ml), or vehicle for 48 hours. IFN-γ and IL-4 were measured by ELISA. […] In FIG. 7D, mouse NKT cell lines were stained with PE-labeled CD1d tetramers of PI57 or α-GalCer at 4° C. for 45 minutes or 37° C. for 25 minutes, and with anti-TCRβ-APC antibody. Top: Lymphocytes were gated in the FSC/SSC window. Bottom: Percentage of CD1d tetramer+ cells. […] In FIG. 7G, CD1d Fc-coated Maxisorp plates were loaded with lipid and cultured with 5×10^4 NKT cells. IFN-γ was analyzed by ELISA after 24 hours. Data represent 3 or 5 independent experiments.
Human NKT cells were isolated from peripheral blood of normal volunteers, using a PE-conjugated anti-human NKT cell antibody (clone 6B11, which recognizes the CDR3 loop of the conserved Vα24 TCR found on iNKT cells) (BD Pharmingen) and anti-PE MACS beads (Miltenyi Biotec). Cells retained on the MACS column were then eluted. […]
Mouse or human IL-4 and IFN-γ levels were measured by ELISA, as previously described (20). […]

BM2a.3 cells = test: Human NKT cell clone on CD1d Fc-coated plates loaded with lipid, IFN-γ ELISA; assay type: cell-based; conditions: 5×10^4 NKT cells, 24 hours
Method: In FIG. 7A, NKT cell lines were cocultured with BM-derived DCs (BMDCs) and α-GalCer (100 ng/ml), PI57 (10 μg/ml), or vehicle for 48 hours, with or without pre-incubation with anti-CD1d (10 μg/ml). IFN-γ was measured by ELISA. In FIG. 7B, murine NKT cell lines were cocultured as in 7A with BMDCs from WT, Cd1d^−/−, Myd88^−/−, or Trif^−/− mice. Cells were treated with α-GalCer (100 ng/ml), PI57 (2.5, 5, or 10 μg/ml), PBS30 (1, 2.5, or 5 μg/ml), or vehicle for 48 hours. IFN-γ and IL-4 were measured by ELISA. […] In FIG. 7D, mouse NKT cell lines were stained with PE-labeled CD1d tetramers of PI57 or α-GalCer at 4° C. for 45 minutes or 37° C. for 25 minutes, and with anti-TCRβ-APC antibody. Top: Lymphocytes were gated in the FSC/SSC window. Bottom: Percentage of CD1d tetramer+ cells. […] IFN-γ was analyzed by ELISA after 24 hours. […]
Maxisorp plates (Nunc) were coated with PBS diluted recombinant human CD1d/β2 microglobulin Fc fusion proteins (0.5 μg/well; kindly provided by Dr. Jenny Gumperz (64) and anti-LFA-1 antibodies (0.05 μg/well, AbD Serotec) overnight at 4° C. After washing with PBS, immobilized CD1d was loaded with sonicated lipid antigens diluted in 25% DMSO/dH2O by overnight incubation at 37° C. After washing with PBS and culture media, NKT cells were added (5×10^4 cells/well) and culture supernatants were analyzed for IFN-γ by ELISA after overnight culture at 37° C.

[1] = tested on: invariant Vα14 NKT cell hybridomas; test: Invariant Vα14 NKT cell hybridomas with glycolipid-loaded immobilized CD1d, IL-2; assay type: cell-based, mouse; conditions: immobilized recombinant CD1d loaded with glycolipid; three hybridomas (RT2, RT23, RT24)
Method: as §1
NKT cell hybridomas were established from C57BL/6 thymic NKT cells by fusion with thymoma BW5147 as previously described (61).
Culture wells were coated with recombinant CD1/β2m dimer proteins (Becton Dickinson) according to the manufacture's protocols. […] Cytokines in the culture supernatants were determined by ELISA.

CCCCCCCCCCCCCC(=O)OC[C@H]1O[C@H](O[C@H]2CC[C@@]3(C)C(=CC[C@H]4[C@@H]5CC[C@H]([C@H](C)CCCC(C)C)[C@@]5(C)CC[C@@H]43)C2)[C@H](O)[C@@H](O)[C@@H]1O [PI57, Cholesteryl 6-O-tetradecanoyl-α-D-glucopyranoside] was tested, and the “activation of human NKT cell lines (IFN-γ and IL-4 production)” value (human NKT cell lines) was “activated”, the “IFN-γ induced by plate bound CD1d loaded with glycolipid” value (BM2a.3 cells) was “induced IFN-γ in BM2a.3 cells” and the “IL-2 production by Vα14 NKT cell hybridomas” value [1] was “produced IL-2”.

Reference: US9657046B2, “Methods for the treatment and prevention of inflammatory diseases” (Children's Medical Center Corporation, priority 2010, dated 2017)
